Patent US9839669B2 (priority 2011, dated 2017)
Read-outs that look alike come from different tables or passages of the source.

Columns and labels:
[1] = test system: HSV-1; type: cell-based, Herpes simplex viruses type 1; conditions: Aciclovir 1.5 mmol
[2] = test system: Vero cells
[3] = test system: BGM cells

Nc1nc2c(ncn2COCCO)c(=O)[nH]1 [Aciclovir]
Average relative inhibition ([1]; average over virus dilutions): 100
Number of plaque, Mean value ([1]; virus dilution 10^−5.0): 0
Relative infectiosity ([1]; virus dilution 10^−5.0): 0
Relative inhibition ([1]; virus dilution 10^−5.0): 100
Number of plaque, Mean value ([1]; virus dilution 10^−5.48): 0
Relative infectiosity ([1]; virus dilution 10^−5.48): 0
Relative inhibition ([1]; virus dilution 10^−5.48): 100
Number of plaque, Mean value ([1]; virus dilution 10^−5.95): 0
Relative infectiosity ([1]; virus dilution 10^−5.95): 0
Relative inhibition ([1]; virus dilution 10^−5.95): 100
cytotoxicity [2]: negative
cytotoxicity [3]: negative
